Entries after “also recorded” stand apart in the source; their conditions may differ. Read-outs that look alike come from different tables or passages of the source.
Columns and labels:
deacetylase = details: dose between 20 and 40 mg/kg, patients with cervical cancer; cited from earlier work
[1] = literature; cited from earlier work
[2] = tested on: patients with major depressive illness, bipolar disorder, or schizoaffective disorder; details: cited from earlier work
HIV-infected individuals = details: 250 mg twice daily, 10 weeks; cited from earlier work
[3] = Solubility in simulated gastric fluid USP; type: physicochemical
[4] = Solubility in simulated intestinal fluid USP; type: physicochemical
[5] = Hygroscopicity and storage stability of the solid; type: physicochemical
Solubility in methanol = details: product of Examples 2 and 3
[6] = Solubility of lithium valproate in water / aqueous solutions
[7] = mean duration of at least 1 year of administration

2-propylpentanoic acid magnesium salt [magnesium valproate]
effect on deacetylase activity in tumor tissues (deacetylase): inhibits deacetylase activity

CCCC(CCC)C(=O)[O-].[Na+] [Sodium valproate]
hygroscopicity [1]: hygroscopic

CCCC(CCC)C(=O)O [Valproic acid, 2-propylpentanoic acid]
solubility in water [1]: very slightly soluble | mean change in GAS ratings ([2]; bipolar and schizoaffective patients, average of 11 to 14 months of treatment): 35.0 | patients with improved mean GAS scores, bipolar disorder [2, 7]: 12 of 12 | patients with improved mean GAS scores, depressed patients [2, 7]: 7 of 9 | patients with improved mean GAS scores, schizoaffective states [2, 7]: 11 of 14 | safety and tolerability (HIV-infected individuals): safe and well tolerated

CCCC(CCC)C(=O)O [divalproex sodium]
hygroscopicity [1]: not hygroscopic

CCCC(CCC)C(=O)[O-].[Li+] [lithium valproate]
solubility in simulated gastric fluid USP [3]: soluble | solubility in simulated intestinal fluid USP [4]: soluble | hygroscopicity [5]: not hygroscopic or deliquescent; also recorded: non-hygroscopic | stability during storage [5]: stable during storage | solubility in methanol (Solubility in methanol): very soluble | solubility of lithium valproate in water ([6]; portions added to 1 mL water until undissolved): about 250 mg of lithium valproate per mL of water | solubility in water ([6]; product of Examples 2 and 3): very soluble | pH of aqueous solutions ([6]; water or aqueous solutions): near neutral pH
